US20050192371A1, “Preparation and use of photopolymerized microparticles” (priority 1998, published 2005)

Experiments:
[1] = Release of Rose Bengal from MSA disks versus mass fraction degraded; type: physicochemical; settings: FIG. 14; homogeneous and heterogeneous MSA disks, 10 ml PBS, 37° C., absorbance 550 nm
From the text: Crosslinked particles containing Rose Bengal were incorporated in a MSA matrix and polymerized into disks. Rose Bengal was also homogeneously incorporated into another set of MSA disks and polymerized. Advantages of using a particle-polymer composite include multi-mode degradation and release possible through the use of different biocompatible polymers and drugs, ease of control of surface degradation, and in one particular application, bone growth is facilitated by the resulting porous structures.
Disk samples were 0.25 to 0.3 grams, 13 mm diameter and 1.5 mm thick. Disks were placed in 10 ml of PBS buffer at 37° C. to monitor the degradation.
The absorbance of Rose Bengal was measured at 550 nm, and the disks were weighed to monitor the degradation.

[2] = Drug release / degradation of PMSA microparticles in phosphate-buffered saline; type: physicochemical; settings: FIG. 13; tacrine absorbance at 322 nm, Rose Bengal at 550 nm
Description: The centrifuge tube was shaken to disperse the particles throughout the solution and placed in a 37° C. temperature bath for 3 minutes. The tube was then immediately centrifuged, and the buffer was drawn off and analyzed for drug concentration. The centrifuge tube was refilled with 37° C. PBS, and the cycle was repeated for about 3 hours. The tubes remained in the temperature bath for 3 minutes for the first hour, and 5-10 minutes for the remainder of the time data was collected. UV-Vis spectrophotrometry (Model 8452, Hewlett Packard) was used to determine the concentration of tacrine (absorbance was measured at 322 nm) in experiment samples.
Drug release experiments illustrate the release properties of the microparticles formed in the photopolymerization PCA process. […] The Rose Bengal release profile is also affected by photobleaching of particles in room light. This may explain the lag time at the beginning of the Rose Bengal release in FIG. 13.

Row | SMILES | release behavior as a function of the mass fraction of the disks degraded [1] | release profile from PMSA particles into PBS buffer [2]
1 | O=C([O-])c1c(Cl)c(Cl)c(Cl)c(Cl)c1-c1c2cc(I)c(=O)c(I)c-2oc2c(I)c([O-])c(I)cc12.[Na+].[Na+] [Rose Bengal] | linear relationship between degradation and release | some influence of diffusion in the release
2 | Nc1c2c(nc3ccccc13)CCCC2 [tacrine, 9-amino-1,2,3,4-tetrahydroacridine] | – | follows the curve for surface erosion of a sphere
